# Assay results from US12390465B2, “Coumarin derivative for therapy or prophylaxis of a cell proliferative disorder” (The Institute of Cancer Research: Royal Cancer Hospital, priority 2017, dated 2025).
# Key:
# Type in all cases: in vivo, human
# [1] = tested on: KRAS mutant non-small-cell lung cancer; assay: Example 2: oral treatment of a non-small-cell lung cancer patient with stepwise dose reduction; details: for best response, reduction in target lesions by RECIST 1.1: CT scan
# Description: A potassium salt of compound (I) (the potassium salt being also referred to as the “IMP” in this example) was orally administered to a patient with KRAS mutant non-small-cell lung cancer.
# The patient started treatment on 1 Sep., 2014. The IMP was first administered at a dose of 4 mg twice weekly in 4-week cycles consisting of 4 weeks of treatment (4 mg 4 wk on). In Cycle 9, due to Grade 3 maculopapular rash, the dosage was reduced to 3.2 mg twice weekly in 4-week cycles (3.2 mg 4 wk on). In Cycle 22, due to Grade 3 facial rash, the dosage was reduced again to a 3 weeks on/1 week off schedule with 3.2 mg twice weekly (3.2 mg 3 wk on/1 wk off).
# The horizontal axis (X-axis) represents the treatment cycle number and the vertical axis (Y-axis) represents the rate of change of tumor size from baseline. The tumor size was measured by CT scan. The best responses of the dosing schedules 4 mg 4 wk on, 3.2 mg 4 wk on, and 3.2 mg 3 wk on/1 wk off were 58% reduction, 61% reduction, and 68% reduction in target lesions by RECIST 1.1, respectively. Treatment of the patient by the IMP is being continued as of 18 Apr., 2018 (at Cycle 48, equivalent to 3.6 years) without any Grade 2 or higher rash being observed.
# The patient had previously been treated with: • Carboplatin/Pemetrexed • Pemetrexed • Docetaxel • Pleurodesis (October 2012) (surgery)
# [2] = tested on: KRAS mutant and NRAS mutant IgG lambda multiple myeloma; assay: Example 1: oral treatment of a multiple myeloma patient, 3 weeks on/1 week off; details: for FLCk: pre 325 mg/L, 4 mg twice weekly
# Description: A potassium salt of compound (I) (the potassium salt being also referred to as the “IMP” in this example) was orally administered to a patient with KRAS mutant and NRAS mutant IgG lambda multiple myeloma at a dose of 4 mg twice weekly (Tuesday and Friday) in 4-week cycles consisting of 3 weeks of treatment followed by 1 week of rest (3 weeks on/1 week off). Dexamethasone was not used in combination with the IMP.
# The patient started dosing on 29 Nov., 2016. […] initial and ongoing toxicity was intermittent Grade 1 diarrhoea that may be related to the IMP.
# The patient had previously been treated with: • Autologous stem cell transplant • Proteasome inhibitor • Immunomodulatory drug • Cyclophosphamide+Dexamethasone+Thalidomide • Melphalan • Lenalidomide • Cyclophosphamide+Bortezomib • Dexamethasone • Spine T3-T12, 5 fractions (radiotherapy)
# [3] = tested on: HRAS mutant apocrine adenocarcinoma of the scalp; assay: Example 3: oral treatment of an apocrine adenocarcinoma patient following the dosing guidance; details: for reduction in tumor size: CT scan
# Description: A potassium salt of compound (I) (the potassium salt being also referred to as the “IMP” in this example) was orally administered to a patient with HRAS mutant apocrine adenocarcinoma of the scalp. Apocrine adenocarcinoma of the scalp is a cutaneous sweat gland carcinoma. The patient was diagnosed in 2014, and had radiotherapy and surgery twice before treatment with the IMP.
# Treatment of the patient by the IMP was started on 8th Jan., 2018 at a dose of 4 mg twice weekly in 4-week cycles. In Cycle 1 Week 3, the patient had Grade 2 acneiform rash and Grade 2 diarrhoea and thus the dosage was reduced to a 3 weeks on/1 week off schedule with 4 mg twice weekly. The grade of acneiform rash was one (1) in Cycle 2 Day 1, […] in Cycle 2 Day 22, and two (2) in Cycle 3 Day 1. Thus, the dose at Cycle 3 Day 1 was not reduced to 3.2 mg and was determined as 4 mg.
# Treatment of the patient by the IMP is ongoing as of 30th Apr., 2018 (Cycle 5 Day 1) without any Grade 2 or higher rash or diarrhoea being observed.
# solid cancers = assay: Earlier dosing regimen (twice weekly, 4 mg per administration) in patients; details: some cases
# Description: In regard to the usage and dosage of compound (I) or a salt thereof, a potassium salt of compound (I) is known to be administered to patients with solid cancers such as non-small-cell lung cancer, ovarian cancer, endometrial cancer, and colorectal cancer twice weekly at a dose of 4 mg per administration (see non patent document 1).
# [4] = 4 mg twice weekly in 4-week cycles, Cycle 1 Week 3
smiles,measurement,setting,value
CNS(=O)(=O)[N-]c1nccc(Cc2c(C)c3ccc(Oc4ncccn4)cc3oc2=O)c1F.[K+] [IMP],rash (grade) after the reductions,"[1]; 3.2 mg twice weekly, 3 wk on/1 wk off",1 Grade
same,facial rash (grade),"[1]; 3.2 mg twice weekly, 4 wk on, Cycle 22",3 Grade
same,maculopapular rash (grade),"[1]; 4 mg twice weekly, 4 wk on, Cycle 9",3 Grade
same,rash observed (grade) during continued treatment,[1]; as of Cycle 48 (3.6 years),< 2 Grade
same,response by RECIST 1.1,"[1]; maintained at Cycle 40, 3.2 mg 3 wk on/1 wk off",partial response
same,"best response, reduction in target lesions by RECIST 1.1",[1]; schedule 3.2 mg 3 wk on/1 wk off,68%
same,"best response, reduction in target lesions by RECIST 1.1",[1]; schedule 3.2 mg 4 wk on,61%
same,"best response, reduction in target lesions by RECIST 1.1",[1]; schedule 4 mg 4 wk on,58%
same,rash related to the IMP (grade),"[2]; 4 mg twice weekly oral, no dexamethasone",2 Grade
same,diarrhoea (toxicity grade),"[2]; 4 mg twice weekly oral, no dexamethasone, initial and ongoing, intermittent, may be related to the IMP",1 Grade
same,response as per IMWG criteria,"[2]; 4 mg twice weekly oral, ongoing",partial response
same,FLCk,[2]; after 1 cycle,161 mg/L
same,FLCk,[2]; after 2 cycles,264 mg/L
same,acneiform rash (grade),[3]; [4],2 Grade
same,diarrhoea (grade),[3]; [4],2 Grade
same,response by RECIST 1.1 (tumor size by CT scan),"[3]; 4 mg twice weekly, 3 weeks on/1 week off",partial response
same,acneiform rash (grade),"[3]; 4 mg twice weekly, 3 weeks on/1 week off, Cycle 2 Day 1",1 Grade
same,acneiform rash (grade),"[3]; 4 mg twice weekly, 3 weeks on/1 week off, Cycle 2 Day 22",3 Grade
same,acneiform rash (grade),"[3]; 4 mg twice weekly, 3 weeks on/1 week off, Cycle 3 Day 1",2 Grade
same,reduction in tumor size,[3]; Cycle 2 Day 22,54%
same,reduction in tumor size,[3]; Cycle 4 Day 15,58%
same,diarrhoea observed (grade) during ongoing treatment,[3]; as of Cycle 5 Day 1,< 2 Grade
same,rash observed (grade) during ongoing treatment,[3]; as of Cycle 5 Day 1,< 2 Grade
CNS(=O)(=O)Nc1nccc(Cc2c(C)c3ccc(Oc4ncccn4)cc3oc2=O)c1F [compound (I)],adverse event leading to unplanned dose interruption and/or dose reduction,solid cancers,worsening of skin rash
